{
  "source": "patent US9051349B2",
  "about": "“Larazotide acetate compositions” (Alba Therapeutics Corp., priority 2007, dated 2015)",
  "key": {"physchem [1]": {"experiment": "physchem", "conditions": "water", "protocol": "Solubilities of Larazotide acetate and the corresponding chloride salt in water were tested at 20° C. after 14 hours of vigorous stirring in the presence of residual solid. Concentrations of peptide are measured by standardized HPLC."}, "[2]": {"protocol": "The stability of the chloride salt was tested at 25° C. without humidity control (in closed bottles). The stability of the acetate salt was determined at 25° C./60% RH."}, "[3]": {"conditions": "40 C/75% RH, 1 and 2 months", "quoted_text": "An appropriate amount of amorphous larazotide acetate and crystalline larazotide acetate was used for a stability study to evaluate quality parameters (purity, impurities, assay and ID) for these materials under various storage conditions. Data was collected at two time points, namely at 1 month and at 2 months of storage under the conditions tested.\nData was generated for storage of the three larazotide acetate samples stored at 40 C/75% RH. All three samples were analyzed at 1 and 2 months."}, "physchem [4]": {"experiment": "physchem", "protocol": "Approximate solubilities of Larazotide acetate Form A in different solvents were determined. Aliquots of the test solvent were added to weighed samples of Larazotide. The samples were sonicated to aid in dissolution. Visual inspection was used to determine if a sample had dissolved. The approximate solubility was calculated from the total amount of solvent added."}, "[5]": {"conditions": "5% to 95% RH sorption/desorption", "description": "Moisture sorption/desorption data were collected on a VTI SGA-100 Vapor Sorption Analyzer. Sorption and desorption data were collected over a range of 5% to 95% relative humidity (RH) at 10% RH intervals under a nitrogen purge. Samples were not dried prior to analysis. Equilibrium criteria used for analysis were less than 0.0100% weight change in five minutes, with a maximum equilibration time of three hours if the weight criterion was not met. Data were not corrected for the initial moisture content of the samples. NaCl and PVP were used as calibration standards."}, "[6]": {"conditions": "25° C. without humidity control (closed bottles), timepoint 0"}, "[7]": {"conditions": "25° C. without humidity control (closed bottles), timepoint 1"}, "[8]": {"conditions": "25° C. without humidity control (closed bottles), timepoint 2"}},
  "note": "Where two headings read alike, the source gives them in different places. Residues, ends and D or L forms follow the SMILES beside them.",
  "data": [
    {"smiles": "CC(C)C[C@H](NC(=O)[C@@H](NC(=O)CNC(=O)CN)C(C)C)C(=O)N[C@H](C(=O)N[C@@H](CCC(N)=O)C(=O)N1CCC[C@H]1C(=O)NCC(=O)O)C(C)C", "note": "[Larazotide Chloride] (H-GGVLVQPG-OH)", "values": [
      {"measurement": "solubility at 14 h", "setting": "physchem [1]", "value": "≥ 300000", "unit": "µg/mL"},
      {"measurement": "rate of deamidation", "setting": "[2]; 25° C. without humidity control (closed bottles)", "value": "about 1 %/month"},
      {"measurement": "% HPLC Area (purity)", "setting": "[2]; [6]", "value": 98.4, "unit": "%"},
      {"measurement": "Deamidated “Glu” % HPLC area", "setting": "[2]; [6]", "value": 1.06, "unit": "%"},
      {"measurement": "% HPLC Area (purity)", "setting": "[2]; [7]", "value": 97.8, "unit": "%"},
      {"measurement": "Deamidated “Glu” % HPLC area", "setting": "[2]; [7]", "value": 1.85, "unit": "%"},
      {"measurement": "% HPLC Area (purity)", "setting": "[2]; [8]", "value": 96.1, "unit": "%"},
      {"measurement": "Deamidated “Glu” % HPLC area", "setting": "[2]; [8]", "value": 3.02, "unit": "%"}
    ]},
    {"smiles": "CC(C)C[C@H](NC(=O)[C@@H](NC(=O)CNC(=O)CN)C(C)C)C(=O)N[C@H](C(=O)N[C@@H](CCC(N)=O)C(=O)N1CCC[C@H]1C(=O)NCC(=O)O)C(C)C", "note": "[Larazotide Acetate] (H-GGVLVQPG-OH)", "values": [
      {"measurement": "rate of deamidation", "setting": "[2]; 25° C./60% RH", "value": "about 0.05 %/month"},
      {"measurement": "% HPLC Area (purity)", "setting": "[2]; 25° C./60% RH, timepoint 0", "value": 98.7, "unit": "%"},
      {"measurement": "Deamidated “Glu” % HPLC area", "setting": "[2]; 25° C./60% RH, timepoint 0", "value": 0.19, "unit": "%"},
      {"measurement": "% HPLC Area (purity)", "setting": "[2]; 25° C./60% RH, timepoint 1", "value": 98.4, "unit": "%"},
      {"measurement": "Deamidated “Glu” % HPLC area", "setting": "[2]; 25° C./60% RH, timepoint 1", "value": 0.22, "unit": "%"},
      {"measurement": "% HPLC Area (purity)", "setting": "[2]; 25° C./60% RH, timepoint 2", "value": 98.2, "unit": "%"},
      {"measurement": "Deamidated “Glu” % HPLC area", "setting": "[2]; 25° C./60% RH, timepoint 2", "value": 0.26, "unit": "%"},
      {"measurement": "% HPLC Area (purity)", "setting": "[2]; 25° C./60% RH, timepoint 3", "value": 97.7, "unit": "%"},
      {"measurement": "Deamidated “Glu” % HPLC area", "setting": "[2]; 25° C./60% RH, timepoint 3", "value": 0.40, "unit": "%"},
      {"measurement": "% HPLC Area (purity)", "setting": "[2]; 25° C./60% RH, timepoint 6", "value": 96.1, "unit": "%"},
      {"measurement": "Deamidated “Glu” % HPLC area", "setting": "[2]; 25° C./60% RH, timepoint 6", "value": 0.60, "unit": "%"}
    ]},
    {"smiles": "CC(C)C[C@H](NC(=O)[C@@H](NC(=O)CNC(=O)CN)C(C)C)C(=O)N[C@H](C(=O)N[C@@H](CCC(N)=O)C(=O)N1CCC[C@H]1C(=O)NCC(=O)O)C(C)C", "note": "[amorphous larazotide acetate] (H-GGVLVQPG-OH)", "values": [
      {"measurement": "overall rate of degradation", "setting": "[3]", "value": "~10", "unit": "% per month"}
    ]},
    {"smiles": "CC(C)C[C@H](NC(=O)[C@@H](NC(=O)CNC(=O)CN)C(C)C)C(=O)N[C@H](C(=O)N[C@@H](CCC(N)=O)C(=O)N1CCC[C@H]1C(=O)NCC(=O)O)C(C)C", "note": "[Form A] (H-GGVLVQPG-OH)", "values": [
      {"measurement": "solubility", "setting": "physchem [4]; (1:1) DCM/MeOH", "value": "< 3000", "unit": "µg/mL"},
      {"measurement": "solubility", "setting": "physchem [4]; (1:1) Water/ACN", "value": "< 3000", "unit": "µg/mL"},
      {"measurement": "solubility", "setting": "physchem [4]; (1:1) Water/Dioxane", "value": "< 3000", "unit": "µg/mL"},
      {"measurement": "solubility", "setting": "physchem [4]; (1:1) Water/MeOH", "value": "< 3000", "unit": "µg/mL"},
      {"measurement": "solubility", "setting": "physchem [4]; Acetone", "value": "< 4000", "unit": "µg/mL"},
      {"measurement": "solubility", "setting": "physchem [4]; Acetonitrile (ACN)", "value": "< 4000", "unit": "µg/mL"},
      {"measurement": "solubility", "setting": "physchem [4]; Dichloromethane (DCM)", "value": "< 4000", "unit": "µg/mL"},
      {"measurement": "solubility", "setting": "physchem [4]; Dimethyl sulfoxide (DMSO)", "value": "< 4000", "unit": "µg/mL"},
      {"measurement": "solubility", "setting": "physchem [4]; Dioxane", "value": "< 4000", "unit": "µg/mL"},
      {"measurement": "solubility", "setting": "physchem [4]; Ethanol (EtOH)", "value": "< 4000", "unit": "µg/mL"},
      {"measurement": "solubility", "setting": "physchem [4]; Ethyl acetate (EtOAc)", "value": "< 4000", "unit": "µg/mL"},
      {"measurement": "solubility", "setting": "physchem [4]; Methanol (MeOH)", "value": "< 4000", "unit": "µg/mL"},
      {"measurement": "solubility", "setting": "physchem [4]; Tetrahydrofuran (THF)", "value": "< 4000", "unit": "µg/mL"},
      {"measurement": "solubility", "setting": "physchem [4]; Trifluoroethanol (TFE)", "value": 4000, "unit": "µg/mL"},
      {"measurement": "solubility", "setting": "physchem [4]; water", "value": 8000, "unit": "µg/mL"},
      {"measurement": "solid form by XRPD following the moisture sorption experiment", "setting": "[5]", "value": "still Form A"}
    ]}
  ]
}
